In US9534035B2, “Cell lines expressing ENaC and methods using them” (priority 2008, dated 2017):
“Also recorded” adds a separate entry of the source. Where two headings read alike, the source gives them in different places.

Columns and labels:
Format in all cases: cell-based
ENaC = target: T1, ENaC (Homo sapiens, UniProt P37088+P51168+P51170, A314G); assay: membrane potential assay with stable ENaC cell line (CHO)
T1 construct: expressed in transfected cells
T1 sequence (P37088 1-669): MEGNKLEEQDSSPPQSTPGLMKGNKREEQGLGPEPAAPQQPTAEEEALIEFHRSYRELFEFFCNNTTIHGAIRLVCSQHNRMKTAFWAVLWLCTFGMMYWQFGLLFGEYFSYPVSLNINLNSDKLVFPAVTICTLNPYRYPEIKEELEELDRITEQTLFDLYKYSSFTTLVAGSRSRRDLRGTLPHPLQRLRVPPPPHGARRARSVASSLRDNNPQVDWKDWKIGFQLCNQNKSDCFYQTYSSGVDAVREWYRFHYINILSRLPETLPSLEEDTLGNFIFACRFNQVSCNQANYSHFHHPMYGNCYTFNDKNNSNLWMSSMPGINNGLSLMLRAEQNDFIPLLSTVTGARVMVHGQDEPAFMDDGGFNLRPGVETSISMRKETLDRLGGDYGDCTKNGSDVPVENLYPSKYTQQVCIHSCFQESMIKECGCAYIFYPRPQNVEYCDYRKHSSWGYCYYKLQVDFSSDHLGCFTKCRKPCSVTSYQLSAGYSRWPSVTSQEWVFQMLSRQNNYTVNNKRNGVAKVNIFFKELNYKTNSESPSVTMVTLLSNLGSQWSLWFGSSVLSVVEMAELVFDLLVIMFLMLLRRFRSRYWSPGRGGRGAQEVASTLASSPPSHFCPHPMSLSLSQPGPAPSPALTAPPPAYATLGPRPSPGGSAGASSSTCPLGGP
T1 sequence (P51168 1-640 A314G): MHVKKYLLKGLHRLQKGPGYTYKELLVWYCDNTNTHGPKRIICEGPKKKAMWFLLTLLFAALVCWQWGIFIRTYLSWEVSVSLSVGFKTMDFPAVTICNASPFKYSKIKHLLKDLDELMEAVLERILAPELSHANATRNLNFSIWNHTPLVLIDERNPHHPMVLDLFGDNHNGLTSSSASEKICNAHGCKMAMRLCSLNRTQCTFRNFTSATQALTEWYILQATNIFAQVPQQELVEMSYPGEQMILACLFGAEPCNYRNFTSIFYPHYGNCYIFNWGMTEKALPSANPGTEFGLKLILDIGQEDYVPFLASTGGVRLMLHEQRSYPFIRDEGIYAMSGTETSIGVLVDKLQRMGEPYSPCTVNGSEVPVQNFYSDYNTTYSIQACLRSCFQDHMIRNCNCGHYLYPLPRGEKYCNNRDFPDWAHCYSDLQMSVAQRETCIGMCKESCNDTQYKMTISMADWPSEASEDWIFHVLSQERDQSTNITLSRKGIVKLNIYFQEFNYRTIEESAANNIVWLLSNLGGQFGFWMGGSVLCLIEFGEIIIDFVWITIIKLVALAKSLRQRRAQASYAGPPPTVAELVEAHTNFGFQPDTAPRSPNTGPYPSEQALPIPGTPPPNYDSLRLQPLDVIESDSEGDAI
T1 sequence (P51170 1-649): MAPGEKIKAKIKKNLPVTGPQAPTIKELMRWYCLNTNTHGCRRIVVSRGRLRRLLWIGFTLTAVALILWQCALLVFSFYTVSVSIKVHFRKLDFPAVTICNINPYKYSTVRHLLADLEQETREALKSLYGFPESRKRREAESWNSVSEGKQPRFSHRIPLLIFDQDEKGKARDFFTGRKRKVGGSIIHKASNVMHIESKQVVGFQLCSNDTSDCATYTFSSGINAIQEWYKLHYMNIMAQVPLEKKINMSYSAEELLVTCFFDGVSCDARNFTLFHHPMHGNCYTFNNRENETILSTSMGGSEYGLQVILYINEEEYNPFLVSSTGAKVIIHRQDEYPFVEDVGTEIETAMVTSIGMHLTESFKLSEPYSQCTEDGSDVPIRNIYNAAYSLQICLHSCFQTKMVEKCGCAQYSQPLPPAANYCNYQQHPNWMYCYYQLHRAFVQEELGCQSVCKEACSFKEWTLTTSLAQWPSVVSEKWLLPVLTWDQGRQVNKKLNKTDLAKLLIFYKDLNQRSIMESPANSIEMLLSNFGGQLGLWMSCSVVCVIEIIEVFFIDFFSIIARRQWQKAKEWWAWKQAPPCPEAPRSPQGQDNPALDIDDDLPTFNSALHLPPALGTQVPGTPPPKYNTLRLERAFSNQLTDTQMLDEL
Protocol: The influx of positively-charged sodium ions following the activation of ENaC results in a change in the membrane potential of the cell. To test the activity of ENaC cell lines, we used a membrane potential assay. Such assays are well known in the art. […] Rev. Biophys. […]
The assay plates were maintained in a 37° C. cell culture incubator under 5% CO2 for 19-21 hours. The media was then removed from the assay plates and 20 μl blue membrane potential dye (Molecular Devices Inc) was added and the cells were incubated for 1 hr at room temperature. Test compounds were solubilized in dimethylsulfoxide, diluted in a phosphate buffer and loaded into 384 well polypropylene micro-titer plates. The cell and compound plates were loaded into an FDSS instrument (Hamamatsu) which measures fluorescence (relative fluorescence units) from the plates over time. Fluorescence values were continuously collected from the beginning of the experiment and following addition of test compounds to report baseline values and any changes due to the addition of test compounds. Test compounds in assay buffer or assay buffer alone were then added to the cells and flluorescence values were collected for two minutes.

proteolyzed ENaC Form 24 = assay: membrane potential assay, trypsin-treated ENaC cells; details: FIG. 8 dose response
Protocol: After a 1 hour incubation with a dye-protease solution at room temperature, the assay was run using the FDSS (Hamamatsu Corporation) as described above.
The experiment was performed using several treatment groups, each receiving a different concentration of trypsin (0 to 3 mg/ml). The cells were incubated with the trypsin for 1 hour at room temperature concurrently with membrane potential dye (standard protocol). […] We further characterized these proteolytically modified isoforms for their ability to conduct sodium.
The isoform specific assay described above was performed with MBP dye solution with trypsin concentrations as listed (Table 2).

[1] = system: proteolytically cleaved ENaC isoforms; assay: dose response of inhibitors across trypsin concentrations, membrane potential FDSS protocol; details: FIG. 9, trypsin 0 to 2.25 mg/ml, IC50 plotted against protease concentration
Protocol: We also tested the ability of novel ENaC inhibitors (identified in Example 4) to inhibit proteolytically cleaved ENaC. […] The cells were loaded with membrane potential dye concurrently with the trypsin. […] values were calculated and plotted as a function of protease concentration. […] The different isoforms of ENaC can be pursed in drug discovery to more effectively address the role of the different isoforms of ENaC or the effect or role of proteolysis in disease.

[2] = ENaC cell line maintained in 90 mM sodium media, read-out: EC50 (approx)
[3] = ENaC cell line maintained in 150 mM sodium media, read-out: EC50 (approx)
[4] = a cell line of the invention, general statement, read-out: EC50

| SMILES | EC50 (ENaC; [2]) [mM] | EC50 (ENaC; [3]) [mM] | EC50 (ENaC; FIG. 4, read-out: EC50) [mM] | EC50 (ENaC; [4]) [mM] | inhibition of cleaved ENaC form 24 (proteolyzed ENaC Form 24) | block of the sodium response (ENaC) | inhibition of uncleaved (non-proteolyzed) ENaC (ENaC) | inhibition of proteolytically cleaved ENaC isoforms [1] |
| --- | --- | --- | --- | --- | --- | --- | --- | --- |
| [Cl-].[Na+] [NaCl, sodium chloride] | ~48 | ~80 | 48 | ~50 | – | – | – | – |
| N=C(N)NC(=O)c1nc(Cl)c(N)nc1N [Amiloride, amiloride] | – | – | – | – | much less effective or not effective; also recorded: not effective to inhibit Form 24 | essentially all of the sodium response was blocked | effectively inhibits; also recorded: almost completely inhibit | inhibit a unique subset of ENaC isoforms |
| [Cl-].[Li+] [LiCl, lithium chloride] | ~33 | ~82 | – | ~35 | – | – | – | – |
